According to patent US20240254138A1, “TRICYCLIC PYRIMIDINES AS CYCLIN-DEPENDENT KINASE 7 (CDK7) INHIBITORS” (JANSSEN PHARMACEUTICA NV, priority 2021, published 2024):
Where two headings read alike, the source gives them in different places.

How the values were obtained:
[1] = test system: RNA Polymerase II Serine 5 phosphorylation (Rpb1 CTD, downstream substrate of CDK7) in A549 cells; experiment: Imaging-based cellular RNA PolII Ser5 phosphorylation assay in A549 cells; format: cell-based, human; conditions: Homo sapiens
Summary of the method: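 IC50 derived by fitting % control (DMSO high, 10 μM reference low) against concentration, with Hill slope. Readout: high-content imaging of phospho-Ser5 Rpb1 CTD antibody staining in fixed, permeabilized A549 cells exposed to compound 3 h after 20 h culture in 1% FBS DMEM.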

[2] = test system: RNA Polymerase II Serine 5 phosphorylation in A549 cells overexpressing CDK7-mutant (C312S); experiment: Imaging-based cellular RNA PolII Ser5 phosphorylation assay in A549 cells overexpressing CDK7-mutant (C312S); format: cell-based, human; conditions: Homo sapiens
Summary of the method: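 Readout was automated imaging of anti-phospho-Ser5 Rpb1 CTD immunofluorescence, with IC50 fitted to % control versus concentration. Cells were A549 stably overexpressing non-covalently targetable CDK7 C312S alongside wild-type, exposed to compound 3 h at 37 °C. DMSO and 10 μM reference compound served as controls.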

[3] = molecular target: CDK7/cyclinH/MAT1 trimeric complex (Homo sapiens, UniProt P50613); experiment: In vitro CDK7 assay, potency of irreversible covalent inhibitors (kinact/KI), coupled PK/LDH ADP readout at 340 nm; conditions: for Ki: CDK7 (20 nM enz.) (KI, μM), 20 nM enzyme
Sequence of CDK7/cyclinH/MAT1 trimeric complex (P50613 whole entry): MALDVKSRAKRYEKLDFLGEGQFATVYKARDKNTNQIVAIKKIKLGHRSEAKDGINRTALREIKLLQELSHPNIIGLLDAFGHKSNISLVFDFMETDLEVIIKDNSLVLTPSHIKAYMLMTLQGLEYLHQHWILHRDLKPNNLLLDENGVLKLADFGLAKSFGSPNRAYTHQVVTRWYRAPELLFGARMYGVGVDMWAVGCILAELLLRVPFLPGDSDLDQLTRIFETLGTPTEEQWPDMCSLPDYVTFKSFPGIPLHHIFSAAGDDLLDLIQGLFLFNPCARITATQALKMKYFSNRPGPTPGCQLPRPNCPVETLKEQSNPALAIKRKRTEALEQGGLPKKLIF
Sequence of CDK7/cyclinH/MAT1 trimeric complex (P51946 whole entry partner): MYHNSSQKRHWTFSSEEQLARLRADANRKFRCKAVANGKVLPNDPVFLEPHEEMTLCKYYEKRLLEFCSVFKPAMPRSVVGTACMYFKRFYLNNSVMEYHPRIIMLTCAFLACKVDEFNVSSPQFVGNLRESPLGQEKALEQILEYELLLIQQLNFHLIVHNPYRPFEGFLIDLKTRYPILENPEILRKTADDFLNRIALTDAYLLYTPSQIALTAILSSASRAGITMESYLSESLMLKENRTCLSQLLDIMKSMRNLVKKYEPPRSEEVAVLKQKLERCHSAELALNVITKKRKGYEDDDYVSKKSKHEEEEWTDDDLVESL
Sequence of CDK7/cyclinH/MAT1 trimeric complex (P51948 whole entry partner): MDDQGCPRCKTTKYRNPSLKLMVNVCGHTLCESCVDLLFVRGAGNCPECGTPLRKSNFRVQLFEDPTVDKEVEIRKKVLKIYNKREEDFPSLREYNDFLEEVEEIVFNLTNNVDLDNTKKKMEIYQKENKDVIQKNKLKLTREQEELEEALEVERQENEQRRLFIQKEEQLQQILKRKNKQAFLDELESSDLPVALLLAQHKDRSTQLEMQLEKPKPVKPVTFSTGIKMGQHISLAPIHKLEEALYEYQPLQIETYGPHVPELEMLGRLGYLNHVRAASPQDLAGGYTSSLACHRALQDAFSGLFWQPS

[4] = A549, A549 cells, wild-type CDK7, RNA PolII Ser5 phosphorylation, averaged over all measurements, read-out: CDK7_A549 Wild-type CDK7 (pIC50) (converted)
[5] = A549, A549 cells overexpressing CDK7-mutant (C312S), RNA PolII Ser5 phosphorylation, averaged over all measurements, read-out: CDK7_A549 mutant hCDK7(pIC50) (converted)
[6] = read-out: CDK7 (20 nM enz.) (kinact, s^−1), 20 nM enzyme
[7] = read-out: CDK7 (20 nM enz.) (kinact/KI, M^−1*s^−1), 20 nM enzyme
[8] = read-out: CDK7 (20 nM enz.) (kobs/[I], M^−1*s^−1), 20 nM enzyme

Row | SMILES | IC50 [1, 4] | IC50 [2, 5] | Ki [3] | kinact [3, 6] | kinact/KI [3, 7] | IC50 ([1]; A549, read-out: CDK7_A549 Wild-type CDK7 (pIC50) (converted)) | IC50 ([2]; A549, read-out: CDK7_A549 mutant hCDK7(pIC50) (converted)) | kinact ([3]; read-out: CDK7 (20 nM enz.) (kinact, s^−1)) | kinact/KI ([3]; read-out: CDK7 (20 nM enz.) (kinact/KI, M^−1*s^−1)) | kinact/KI [3, 8]
1 | C=CC(=O)N1CC(N2CCC(c3cc4c(c(C(=O)NC)c3)OCc3c(C5CCOCC5)ccnc3N4)CC2)C1 [Compound 135] | 263 nM | ~7080 nM | 0.0578 µM | 5.71e-05 s⁻¹ | 988 M⁻¹ s⁻¹ | – | – | – | – | –
2 | C=CC(=O)N1CCC(N2CC(c3cc(F)c4c(c3)Nc3nccc(N5CCOCC5)c3CO4)C2)CC1 [Compound 136] | 72.4 nM | 7240 nM | 0.0603 µM | 4.42e-05 s⁻¹ | 734 M⁻¹ s⁻¹ | – | – | – | – | –
3 | C=CC(=O)N1CC(N2CCC(c3cc4c(cn3)OCc3c(N5CCOCC5)ccnc3N4)CC2)C1 [Compound 137] | 126 nM | > 10000 nM | 0.0382 µM | 6.41e-05 s⁻¹ | 1680 M⁻¹ s⁻¹ | – | – | – | – | –
4 | C=CC(=O)N1CC(N2CCC(c3cc4c(cc3CO)OCc3c(N5CCOCC5)ccnc3N4)CC2)C1 [Compound 139] | 661 nM | > 10000 nM | 0.515 µM | 6.73e-05 s⁻¹ | 131 M⁻¹ s⁻¹ | – | – | – | – | –
5 | C=CC(=O)N1CC(N2CCC(O)(c3cc(C)c4c(c3)Nc3nccc(N5CCOCC5)c3CO4)CC2)C1 [Compound 140] | 117 nM | > 10000 nM | 0.0741 µM | 6.51e-05 s⁻¹ | 878 M⁻¹ s⁻¹ | – | – | – | – | –
6 | C=CC(=O)N1CC(N2CCC(c3cc(F)c4c(c3)Nc3nccc(N5CCS(=O)(=O)CC5)c3CO4)CC2)C1 [Compound 141] | 178 nM | > 10000 nM | 0.16 µM | 8.36e-05 s⁻¹ | 523 M⁻¹ s⁻¹ | – | – | – | – | –
7 | C#CCCN(C)C/C=C/C(=O)N1CC(N2CCC(c3ccc4c(c3)Nc3nccc(N5CCOCC5)c3C(C)O4)CC2)C1 (stereo not shown) [Compound 146] | 214 nM | > 10000 nM | 0.0285 µM | 5.53e-05 s⁻¹ | 1940 M⁻¹ s⁻¹ | – | – | – | – | –
8 | C#CCCN(C)C/C=C/C(=O)N1CC(N2CCC(c3ccc4c(c3)Nc3nccc(C5CCOCC5)c3C(C)O4)CC2)C1 (stereo not shown) [Compound 147] | 288 nM | > 10000 nM | 0.0278 µM | 5.84e-05 s⁻¹ | 2100 M⁻¹ s⁻¹ | – | – | – | – | –
9 | C=CC(=O)N1CCC(N2CC(c3cc(Cl)c4c(c3)Nc3nccc(C5CCOCC5)c3CO4)C2)CC1 [Compound 148] | 37.2 nM | 5500 nM | 0.0507 µM | 3.38e-05 s⁻¹ | 666 M⁻¹ s⁻¹ | – | – | – | – | –
10 | C=CC(=O)N1CC(N2CCC(c3ccc4c(c3)Nc3ncc(F)c(N5CCOCC5)c3CO4)CC2)C1 [Compound 151] | 34.7 nM | > 10000 nM | 0.0205 µM | 4.67e-05 s⁻¹ | 2280 M⁻¹ s⁻¹ | – | – | – | – | –
11 | C=CC(=O)N1CC(N2CCC(c3ccc4c(c3)Nc3nccc(-c5cnn(C)c5)c3C(C)(C)O4)CC2)C1 [Compound 152] | ~67.6 nM | > 10000 nM | 0.0242 µM | 4.68e-05 s⁻¹ | 1940 M⁻¹ s⁻¹ | – | – | – | – | –
12 | C=CC(=O)N1CC(N2CCC(O)(c3ccc4c(c3)Nc3nccc(N5CCOCC5)c3C(C)O4)CC2)C1 (stereo not shown) [Compound 154] | 117 nM | > 10000 nM | 0.137 µM | 5.98e-05 s⁻¹ | 438 M⁻¹ s⁻¹ | – | – | – | – | –
13 | C=CC(=O)N1CC(N2CCC(c3cc(C)c4c(c3)Nc3ncc(C#N)c(N5CCOCC5)c3CO4)CC2)C1 [Compound 156] | 490 nM | > 10000 nM | 0.304 µM | 9.03e-05 s⁻¹ | 298 M⁻¹ s⁻¹ | – | – | – | – | –
14 | C=CC(=O)N1CC(N2CCC(c3cc4c(c(C(N)=O)c3)OCc3c(C5CCOCC5)ccnc3N4)CC2)C1 [Compound 158] | 126 nM | > 3980 nM | 0.204 µM | 7.68e-05 s⁻¹ | 377 M⁻¹ s⁻¹ | – | – | – | – | –
15 | C=CC(=O)N1CC(N2CCC(O)(c3cc(C)c4c(c3)Nc3nccc(C5CCOCC5)c3CO4)CC2)C1 [Compound 159] | 70.8 nM | > 10000 nM | 0.144 µM | 0.000115 s⁻¹ | 794 M⁻¹ s⁻¹ | – | – | – | – | –
16 | C=CC(=O)Nc1ccc(-c2cc3c(cn2)OCc2c(N4CCOCC4)ccnc2N3)cc1 [Compound 160] | 64.6 nM | > 10000 nM | 0.0393 µM | 6.88e-05 s⁻¹ | 1750 M⁻¹ s⁻¹ | – | – | – | – | –
17 | C#Cc1cc2c(cc1C1CCN(C3CN(C(=O)C=C)C3)CC1)Nc1nccc(N3CCOCC3)c1C(C)O2 (stereo not shown) [Compound 161] | 123 nM | > 10000 nM | 0.0363 µM | 3.09e-05 s⁻¹ | 851 M⁻¹ s⁻¹ | – | – | – | – | –
18 | C=CC(=O)N1CC2(CC(c3cc(F)c4c(c3)Nc3nccc(N5CCOCC5)c3CO4)C2)C1 [Compound 162] | 182 nM | > 10000 nM | 0.149 µM | 4.88e-05 s⁻¹ | 327 M⁻¹ s⁻¹ | – | – | – | – | –
19 | C=CC(=O)N1CCC(N2CC(c3cc4c(c(C)n3)OCc3c(N5CCOCC5)ccnc3N4)C2)CC1 [Compound 165] | – | – | 0.0638 µM | – | – | 57.5 nM | 6030 nM | 5.16e-05 s⁻¹ | 808 M⁻¹ s⁻¹ | –
20 | C=CC(=O)N1CC(N2CC(c3cc(F)c4c(c3)Nc3nccc(N5CCOCC5)c3CO4)C2)C1 [Compound 166] | 75.9 nM | > 10000 nM | 0.0262 µM | 5.16e-05 s⁻¹ | 1970 M⁻¹ s⁻¹ | – | – | – | – | –
21 | C=CC(=O)N1CC(N2CC(c3ccc4c(c3)Nc3nccc(C5CCOCC5)c3CO4)C2)C1 [Compound 167] | 105 nM | > 10000 nM | 0.0325 µM | 5.4e-05 s⁻¹ | 1660 M⁻¹ s⁻¹ | – | – | – | – | –
22 | C#Cc1cc2c(cc1C1CCN(C3CN(C(=O)C=C)C3)CC1)Nc1nccc(C3CCOCC3)c1C(C)O2 (stereo not shown) [Compound 169] | 53.7 nM | > 10000 nM | 0.0532 µM | 3.63e-05 s⁻¹ | 682 M⁻¹ s⁻¹ | – | – | – | – | –
23 | C=CC(=O)N1CCC(N2CC(c3cc4c(c(C)n3)OCc3c(-c5cnn(C)c5)ccnc3N4)C2)CC1 [Compound 170] | 120 nM | 7760 nM | 0.125 µM | 3.7e-05 s⁻¹ | 296 M⁻¹ s⁻¹ | – | – | – | – | –
24 | C=CC(=O)N1CC(N2CCC(c3cc4c(cc3C#N)OCc3c(N5CCOCC5)ccnc3N4)CC2)C1 [Compound 174] | 324 nM | > 10000 nM | 0.143 µM | 5.74e-05 s⁻¹ | 401 M⁻¹ s⁻¹ | – | – | – | – | –
25 | C#Cc1cc2c(cc1C1CCN(C3CN(C(=O)C=C)C3)CC1)Nc1nccc(N3CCOCC3)c1CO2 [Compound 175] | 240 nM | > 10000 nM | 0.0695 µM | 4.03e-05 s⁻¹ | 580 M⁻¹ s⁻¹ | – | – | – | – | –
26 | C=CC(=O)N1CC(N2CC(c3ccc4c(c3)Nc3nccc(-c5cnn(C)c5)c3CO4)C2)C1 [Compound 176] | 186 nM | > 10000 nM | 0.0372 µM | 5.38e-05 s⁻¹ | 1440 M⁻¹ s⁻¹ | – | – | – | – | –
27 | C=CC(=O)Nc1ccc(-c2ccc3c(c2)Nc2nccc(N4CCOCC4)c2CO3)cn1 [Compound 178] | 22.4 nM | 6760 nM | – | – | – | – | – | – | – | 1910 M⁻¹ s⁻¹
28 | C#Cc1cc(C2CCN(C3CN(C(=O)C=C)C3)CC2)cc2c1OC(C)c1c(N3CCOCC3)ccnc1N2 (stereo not shown) [Compound 181] | ~20.9 nM | > 10000 nM | – | – | – | – | – | – | – | 864 M⁻¹ s⁻¹
